{"source": "patent US20110124588A1", "about": "“SYNERGISTIC ACTIVE INGREDIENT COMBINATIONS” (Bayer Cropscience AG, priority 2008, published 2011)", "key": {"[1]": {"system": "Myzus persicae", "test": "Myzus persicae test (spray treatment of infested cabbage leaves)", "type": "in vivo, green peach aphid (Myzus persicae)", "experimental": "(§1) If the actual kill rate exceeds the calculated value, the kill of the combination is superadditive, i.e. a synergistic effect is present. In this case, the actually observed kill rate must exceed the value calculated using the above formula for the expected kill rate (E).\n(§2) solvents: 78 parts by weight of acetone • • 1.5 parts by weight of dimethylformamide emulsifier: 0.5 part by weight of alkylaryl polyglycol ether\nAfter the desired period of time, the kill in % is determined 100% means that all aphids have been killed; 0% means that none of the aphids have been killed. The kill rates determined are entered into Colby's formula."}, "[2]": {"system": "Spodoptera frugiperda", "test": "Spodoptera frugiperda larvae test (sprayed cabbage leaves)", "type": "in vivo, army worm (Spodoptera frugiperda) larvae", "text": "The expected activity of a given combination of two active compounds can be calculated as follows, according to S. R. Colby, Weeds 15 (1967), 20-22:\nX is the kill rate, expressed as a percentage of the untreated control, when employing active compound A at an application rate of m g/ha or in a concentration of m ppm, Y is the kill rate, expressed as a percentage of the untreated control, when employing active compound B at an application rate of n g/ha or in a concentration of n ppm and E is the kill rate, expressed as a percentage of the untreated control, when employing active compounds A and B at application rates of m and n g/ha or in a concentration of m and n ppm, then\nas §1, §2\nTo produce a suitable preparation of active compound, 1 part by weight of active compound is mixed with the stated amounts of solvents and emulsifier, and the concentrate is diluted with emulsifier-containing water to the desired concentration.\nCabbage leaves (Brassica oleracea) are treated by spraying with the active compound preparation of the desired concentration and are populated with larvae of the army worm (Spodoptera frugiperda) while the leaves are still moist.\nAfter the desired period of time, the kill in % is determined 100% means that all caterpillars have been killed; 0% means that none of the caterpillars have been killed. The kill rates determined are entered into Colby's formula."}, "[3]": {"system": "Phaedon cochleariae", "test": "Phaedon cochleariae larvae test (sprayed cabbage leaves)", "type": "in vivo, mustard beetle (Phaedon cochleariae) larvae", "details": "single active compound", "experimental": "as §1\nSolvents: 78 parts by weight of acetone • • 1.5 parts by weight of dimethylformamide Emulsifier: 0.5 part by weight of alkylaryl polyglycol ether\nAfter the desired period of time, the kill in % is determined 100% means that all beetle larvae have been killed; 0% means that none of the beetle larvae have been killed. The kill rates determined are entered into Colby's formula."}, "[4]": {"details": "Myzus persicae, 144 h, read-out: Kill in % after 6 d"}, "[5]": {"details": "Spodoptera frugiperda, 144 h, read-out: Kill in % after 6 d"}, "[6]": {"details": "Spodoptera frugiperda, 48 h, read-out: Kill in % after 2 d"}, "[7]": {"details": "single active compound, 0.8 g/ha, 6 d"}, "[8]": {"details": "Phaedon cochleariae, 144 h, 6 d, read-out: Kill in % after 6 d"}, "[9]": {"details": "Phaedon cochleariae, 48 h, 2 d, read-out: Kill in % after 2 d"}, "[10]": {"details": "Myzus persicae, 24 h, read-out: Kill in % after 1 d"}}, "note": "Like-named read-outs stand apart in the source and are kept apart here.", "data": [{"compound": "CC1(C)[C@H](/C=C(\\Cl)C(F)(F)F)[C@@H]1C(=O)O[C@H](C#N)c1cccc(Oc2ccccc2)c1", "note": "[gamma-cyhalothrin]", "values": [{"measurement": "pest or weed control at 0.032 g/ha", "setting": "[1]; [4]", "result": 0, "unit": "%"}, {"measurement": "pest or weed control at 0.16 g/ha", "setting": "[2]; [5]", "result": 17, "unit": "%"}, {"measurement": "pest or weed control at 0.16 g/ha", "setting": "[3]; Phaedon cochleariae, 144 h, 0.16 g/ha, 6 d, read-out: Kill in % after 6 d", "result": 0, "unit": "%"}]}, {"compound": "FC(F)(F)c1ccc(OCCCOc2c(Cl)cc(OCC=C(Cl)Cl)cc2Cl)nc1", "note": "[pyridalyl]", "values": [{"measurement": "pest or weed control at 20 g/ha", "setting": "[2]; [6]", "result": 67, "unit": "%"}]}, {"compound": "milbemectin", "values": [{"measurement": "Kill in % after 6 d", "setting": "[2]; [7]", "result": 0, "unit": "%"}, {"measurement": "Kill in % after 6 d", "setting": "[3]; 0.8 g/ha, 6 d", "result": 0, "unit": "%"}]}, {"compound": "O=C(NC(=O)c1c(F)cccc1F)Nc1ccc(Oc2ccc(C(F)(F)F)cc2Cl)cc1F", "note": "[flufenoxuron]", "values": [{"measurement": "pest or weed control at 100 g/ha", "setting": "[2]; [6]", "result": 17, "unit": "%"}, {"measurement": "pest or weed control at 0.8 g/ha", "setting": "[2]; [5]", "result": 67, "unit": "%"}, {"measurement": "pest or weed control at 100 g/ha", "setting": "[3]; [8]", "result": 0, "unit": "%"}]}, {"compound": "CC1(C)C(C=C(Cl)Cl)C1C(=O)OC(C#N)c1cccc(Oc2ccccc2)c1", "note": "(centres unmarked) [cypermethrin]", "values": [{"measurement": "pest or weed control at 0.032 g/ha", "setting": "[1]; [4]", "result": 0, "unit": "%"}, {"measurement": "pest or weed control at 0.16 g/ha", "setting": "[1]; [4]", "result": 0, "unit": "%"}, {"measurement": "pest or weed control at 0.8 g/ha", "setting": "[2]; [5]", "result": 50, "unit": "%"}, {"measurement": "Kill in % after 2 d", "setting": "[3]; 0.8 g/ha, 2 d", "result": 50, "unit": "%"}]}, {"compound": "N#Cc1ccc(CC(=NNC(=O)Nc2ccc(OC(F)(F)F)cc2)c2cccc(C(F)(F)F)c2)cc1", "note": "(mixture of isomers) [metaflumizone]", "values": [{"measurement": "pest or weed control at 4 g/ha", "setting": "[2]; Spodoptera frugiperda, 144 h, single active compound, 4 g/ha, 6 d, read-out: Kill in % after 6 d", "result": 0, "unit": "%"}]}, {"compound": "COC(=O)N(C(=O)N1COC2(C(=O)OC)Cc3cc(Cl)ccc3C2=N1)c1ccc(OC(F)(F)F)cc1", "note": "(centres unmarked) [indoxacarb]", "values": [{"measurement": "pest or weed control at 0.8 g/ha", "setting": "[1]; [4]", "result": 0, "unit": "%"}, {"measurement": "pest or weed control at 4 g/ha", "setting": "[3]; [9]", "result": 0, "unit": "%"}, {"measurement": "pest or weed control at 20 g/ha", "setting": "[3]; [9]", "result": 33, "unit": "%"}]}, {"compound": "CCOP(=S)(OCC)Oc1nc(Cl)c(Cl)cc1Cl", "note": "[chlorpyrifos]", "values": [{"measurement": "Kill in % after 6 d", "setting": "[1]; single active compound, 0.16 g/ha, 6 d", "result": 0, "unit": "%"}, {"measurement": "Kill in % after 6 d", "setting": "[1]; [7]", "result": 0, "unit": "%"}, {"measurement": "Kill in % after 6 d", "setting": "[2]; single active compound, 4 g/ha, 6 d", "result": 33, "unit": "%"}]}, {"compound": "O=[N+]([O-])/N=C1\\NCCN1Cc1ccc(Cl)nc1", "note": "[imidacloprid]", "values": [{"measurement": "pest or weed control at 0.16 g/ha", "setting": "[1]; [10]", "result": 50, "unit": "%"}, {"measurement": "pest or weed control at 4 g/ha", "setting": "[3]; [9]", "result": 0, "unit": "%"}, {"measurement": "pest or weed control at 4 g/ha", "setting": "[3]; [8]", "result": 0, "unit": "%"}, {"measurement": "pest or weed control at 20 g/ha", "setting": "[3]; [8]", "result": 50, "unit": "%"}]}, {"compound": "CN/C(=N\\[N+](=O)[O-])NCc1cnc(Cl)s1", "note": "[clothianidin]", "values": [{"measurement": "pest or weed control at 0.16 g/ha", "setting": "[1]; [4]", "result": 40, "unit": "%"}, {"measurement": "pest or weed control at 4 g/ha", "setting": "[3]; [8]", "result": 50, "unit": "%"}]}, {"compound": "C/C(=N\\C#N)N(C)Cc1ccc(Cl)nc1", "note": "[acetamiprid]", "values": [{"measurement": "pest or weed control at 0.032 g/ha", "setting": "[1]; [4]", "result": 0, "unit": "%"}]}, {"compound": "O=C1C=C(N(Cc2ccc(Cl)nc2)CC(F)F)CO1", "note": "[compound II-29-29, 4-{[(6-chloropyrid-3-yl)methyl](2,2-difluoroethyl)amino}furan-2(5H)-one]", "values": [{"measurement": "pest or weed control at 0.8 g/ha", "setting": "[1]; [4]", "result": 50, "unit": "%"}, {"measurement": "pest or weed control at 100 g/ha", "setting": "[3]; [8]", "result": 67, "unit": "%"}]}, {"compound": "N#Cc1nn(-c2c(Cl)cc(C(F)(F)F)cc2Cl)c(N)c1[S+]([O-])C(F)(F)F", "note": "(centres unmarked) [fipronil]", "values": [{"measurement": "pest or weed control at 0.8 g/ha", "setting": "[1]; [4]", "result": 0, "unit": "%"}]}, {"compound": "O=C(NC(=O)c1c(F)cccc1F)Nc1cc(Cl)c(OC(F)(F)C(F)C(F)(F)F)cc1Cl", "note": "(centres unmarked) [lufenuron]", "values": [{"measurement": "pest or weed control at 100 g/ha", "setting": "[2]; [6]", "result": 0, "unit": "%"}, {"measurement": "pest or weed control at 100 g/ha", "setting": "[3]; [9]", "result": 0, "unit": "%"}]}, {"compound": "O=C(NC(=O)c1ccccc1Cl)Nc1ccc(OC(F)(F)F)cc1", "note": "[triflumuron]", "values": [{"measurement": "pest or weed control at 0.8 g/ha", "setting": "[2]; [5]", "result": 33, "unit": "%"}]}, {"compound": "Nc1nc(N)nc(NC2CC2)n1", "note": "[cyromazine]", "values": [{"measurement": "pest or weed control at 0.16 g/ha", "setting": "[1]; [4]", "result": 0, "unit": "%"}, {"measurement": "pest or weed control at 0.8 g/ha", "setting": "[1]; [4]", "result": 0, "unit": "%"}, {"measurement": "pest or weed control at 20 g/ha", "setting": "[3]; [8]", "result": 0, "unit": "%"}]}, {"compound": "CN(Cc1ccc(Cl)nc1)C1=CC(=O)OC1", "note": "[compound II-29-28, 4-{[(6-chloropyrid-3-yl)methyl](methyl)amino}furan-2(5H)-one]", "values": [{"measurement": "pest or weed control at 0.16 g/ha", "setting": "[1]; Myzus persicae, 144 h, single active compound, 0.16 g/ha, 6 d, read-out: Kill in % after 6 d", "result": 0, "unit": "%"}]}, {"compound": "Cc1cc(C(F)(C(F)(F)F)C(F)(F)F)ccc1NC(=O)c1cccc(I)c1C(=O)NC(C)(C)CS(C)(=O)=O", "note": "[flubendiamid, flubendiamide]", "values": [{"measurement": "pest or weed control at 0.8 g/ha", "setting": "[1]; [10]", "result": 0, "unit": "%"}, {"measurement": "pest or weed control at 4 g/ha", "setting": "[1]; [10]", "result": 0, "unit": "%"}, {"measurement": "pest or weed control at 0.8 g/ha", "setting": "[2]; [5]", "result": 67, "unit": "%"}, {"measurement": "pest or weed control at 20 g/ha", "setting": "[3]; [8]", "result": 50, "unit": "%"}]}]}
